How the values were obtained:
TLR3 (PolyI:C) = experiment: PolyI:C-induced IL-6 in hTERT immortalised foreskin fibroblasts; type: cell-based, human; conditions: 2.5 uM IDX or H151 pre-treatment, 7 h polyI:C (20 ug/ml)
Experimental: (§1) IL-6 levels were measured in the supernatants by ELISA.
(§2) To determine the specificity of IDX on STING signalling, human hTERT immortalised foreskin fibroblasts which have functional TLR4 (LPS) and TLR3 (PolyI:C) responsiveness were tested. […] (FIG. 6).

TC-1 cells (cGAS-STING) = experiment: CPT-induced IL-6 in TC-1 cells; conditions: TC-1, 0.5 μM CPT 48 hours; H151 1.8 μM, IDX 2.5 μM
Experimental: FIG. 7: Mouse TC-1 cells were plated in the presence of 0.5 μM CPT for 48 hours, with the following compounds, where indicated: H151 (1.8 μM), IDX (2.5 μM). IL-6 levels were determined by ELISA. Data shown are averaged from 2 (for H151) or 3 independent experiments (conducted with biological replicate), ±standard deviation (SD). […] Each point represents the mean data for each independent experiment; the column represents the mean of the experiments. *, P≤0.05; **, P≤0.01; ***, P≤0.001; ****, P≤0.0001, ns: non-significant.
Cell culture and reagents.
Murine IP-10 production and IL-6 in supernatant of iBMMs and TC-1 was quantified using Mouse CXCL10/IP-10/CRG-2 Duo Set ELISA (R&D systems, #Dy466) and the IL6 OptE1A ELISA Kit mouse (BD Bioscience, #555240), respectively, according to the manufacturer's protocol. Similarly, human IP-10, TNF-α and IL-6 production was measured in cell supernatants using human IP-10 OptEIA ELISA kit (BD Biosciences, #555157), human OptEIA TNF-α kit (BD Bioscience, #555212) and human IL-6 OptEIA ELISA Set (BD Biosciences, #555220). Tetramethylbenzidine substrate (ThermoFisher Scientific) was used for quantification of the cytokines on a Fluostar OPTIMA (BMG LABTECH) plate-reader.

TLR4 (LPS) = experiment: LPS-induced IL-6 in hTERT immortalised foreskin fibroblasts; type: cell-based, human; conditions: 2.5 uM IDX or H151 pre-treatment, 7 h LPS (100 ng/ml)
Experimental: as §1, §2

human STING (PBMCs) = experiment: STING agonist-induced IL-6 and TNFα in human PBMCs; conditions: PBMCs from two donors, 2.5 μM IDX pre-treatment, GSK STING agonist 100 nM 6 hours
Experimental: The supernatants were collected and analysed for IL-6 and TNFα production by ELISA. Data shown are as average from 2 independent donors (conducted with biological replicate for each donor), ±SEM.
Similarly, human IP-10, TNF-α and IL-6 production was measured in cell supernatants using human IP-10 OptEIA ELISA kit (BD Biosciences, #555157), human OptEIA TNF-α kit (BD Bioscience, #555212) and human IL-6 OptEIA ELISA Set (BD Biosciences, #555220). Tetramethylbenzidine substrate (ThermoFisher Scientific) was used for quantification of the cytokines on a Fluostar OPTIMA (BMG LABTECH) plate-reader.

human STING = biological target: T1, human STING (Homo sapiens, UniProt Q86WV6, G230A/H232R/R293Q/R71H); experiment: STING agonist-driven IP-10 and IFNβ in THP-1 cells; type: cell-based; conditions: THP-1, 2.5 uM IDX 1 hour
T1 construct: endogenous in cells; host or cells: human THP-1 cells
T1 sequence (Q86WV6 whole entry R71H/G230A/H232R/R293Q): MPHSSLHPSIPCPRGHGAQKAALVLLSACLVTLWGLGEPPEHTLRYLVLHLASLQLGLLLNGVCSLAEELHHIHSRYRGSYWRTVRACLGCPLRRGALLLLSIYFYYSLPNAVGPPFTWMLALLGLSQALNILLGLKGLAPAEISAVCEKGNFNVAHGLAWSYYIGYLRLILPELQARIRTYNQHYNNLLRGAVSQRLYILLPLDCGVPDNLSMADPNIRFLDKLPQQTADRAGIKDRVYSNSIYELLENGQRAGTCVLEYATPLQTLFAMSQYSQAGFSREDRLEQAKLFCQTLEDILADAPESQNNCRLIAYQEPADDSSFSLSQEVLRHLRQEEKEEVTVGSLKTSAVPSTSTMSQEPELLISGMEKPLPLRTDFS

[1] = system: influenza A virus (IAV) driven lung inflammation; experiment: Influenza A virus infection in lung TGF-β1 transgenic mice; type: in vivo, mouse; conditions: 5 mg/kg daily from day 1 after IAV infection until day 3
basal Sting signalling = experiment: Interferon stimulated genes in primary BMDMs from Trex1-mutant mice (RT-qPCR); conditions: overnight 1.25 and 2.5 μM IDX
[2] = system: STING signalling (STING, TBK1, IRF3, p-65); experiment: Western blotting of DMXAA-stimulated immortalised mouse bone marrow derived macrophages; type: cell-based; conditions: 2.5 uM IDX 1 h
Experimental: FIG. 11: Immortalised mouse bone marrow derived macrophages were pre-treated for 1 hour with 2.5 uM IDX prior to stimulation for an indicated amount of time with DMXAA (50 ug/mL), and then lysed and analysed by Western blotting using specific total or phospho-antibody. The results on STING and p-STING are representative of 3 independent experiments.
Western Blotting: Following lysis in RIPA buffer supplemented with complete mini protease inhibitor cocktail (Sigma #4693124001) and phosSTOP inhibitor (Sigma #4906845001), the samples were subjected to SDS-Page analyses, on NuPAGE 4%-12% Bis-Tris Protein Gels (Thermo Scientific) with MES or MOPS running buffer (Thermo Scientific), as previously reported (4). Anti-Sting (#13647), Phospho-Sting (#72971), TBK1 (#3013), phospho-TBK1 (#5483), IKKe (#3416), phospho-IKKe (#8766), IRF-3 (#4302), phosphor-IRF3 (#4947), p-65 (#4764), phospho-p-65 (#3033) antibodies were all from Cell Signalling. Anti-beta-Actin antibodies (#Ab49900) were from Abcam.
To further determine the direct activity of IDX on STING, immortalised mouse bone marrow derived macrophages were stimulated with DMXAA for 1, 2 or 3 hours in the presence of IDX (FIG. 11). The cell lysates were analysed by Western blotting using specific total or phospho-antibody against STING, TBK1, IRF3, and p-65 (FIG. 11). In support of its inhibitory activity on downstream STING signaling, IDX decreased phosphorylation of TBK1 and IRF3 and also STING itself. […] While these effects could all be dependent on TBK1 inhibition by IDX, the inventors also observed decreased p-65 phosphorylation that was not dependent on TBK1 in this cell system (4).

mouse STING = biological target: T2, mouse STING (Mus musculus, UniProt Q3TBT3); experiment: DMXAA-induced ISRE-luciferase in L929 cells; conditions: 2.5 uM IDX; DMXAA up to 100 ug/ml
T2 sequence (Q3TBT3 1-378): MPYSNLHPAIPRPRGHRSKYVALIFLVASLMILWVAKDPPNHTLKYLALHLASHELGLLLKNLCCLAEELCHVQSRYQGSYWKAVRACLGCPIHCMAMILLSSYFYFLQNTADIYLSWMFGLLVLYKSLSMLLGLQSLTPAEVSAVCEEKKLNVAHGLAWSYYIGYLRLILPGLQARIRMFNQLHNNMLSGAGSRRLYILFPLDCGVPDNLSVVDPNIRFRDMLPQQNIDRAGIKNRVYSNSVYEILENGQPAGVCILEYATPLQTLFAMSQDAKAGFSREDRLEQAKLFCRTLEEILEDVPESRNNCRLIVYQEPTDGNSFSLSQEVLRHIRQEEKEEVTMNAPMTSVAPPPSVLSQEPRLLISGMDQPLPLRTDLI
Experimental: FIG. 2: Mouse L929 cells stably expressing an IFN-stimulated responsive element (ISRE)-luciferase reporter were pre-treated for 1 h with indicated doses of IDX, prior an 8 h stimulation with 20 ug/ml DMXAA. Cells were lysed and firefly luciferase was quantified at the end of the experiment. Data shown are averaged from 2 independent experiments in biological triplicate, relative to DMXAA and DMSO only condition control (±SEM).
Luciferase assays were carried out at 8 hours. Data were normalised to DMSO+DMXAA only condition, and are shown as averages from 3 independent experiments (conducted with biological replicate), ±SD. Each point represents the mean data for each independent experiment; the column represents the mean of the experiments.
To determine whether IDX could inhibit STING signalling more directly, mouse L929 cells stably expressing an IFN-stimulated-responsive luciferase (ISRE-Luc) were pretreated with IDX at various doses for 1 h, prior to DMXAA stimulation for 8 h (FIG. 2).
Using mouse L929 cells stably expressing an interferon (IFN)-stimulated responsive element (ISRE)-Luciferase construct referred to as LL171 cells (2) and stimulated with the murine STING agonist DMXAA, the inventors speculated that the DMXAA-induced IFN-β production and downstream ISRE-Luciferase expression would only be minimally impacted by IDX if it selectively acted on NF-κB signalling.

[3] = system: basal STING signalling in Trex1-mutant mice; type: in vivo, mouse; conditions: 2 mg/kg i.p. daily for 10 days
[4] = system: cGAS/STING (mouse STING-mCherry), IFN-β-luciferase reporter; experiment: IFN-β-luciferase reporter in HEK-Sting cells overexpressing cGAS-GFP; conditions: different doses overnight
Experimental: FIG. 1: Human HEK cells constitutively expressing mouse STING-mCherry were co-transfected with cGAS-GFP and an interferon (IFN)beta-luciferase (A) or an NF-κB-Luc reporter (B) reporter for 3 h prior to being treated overnight with indicated concentration of IDX (in equal volume of DMSO). Firefly luciferase was quantified the next day. Data shown are averaged from 2 (B) or 3 (A) independent experiments in biological triplicate, relative to DMSO only condition control (±SEM).
Cell culture and reagents.
Cell transfections: HEK Sting cells were reverse transfected with 200 ng of IFNb-Luciferase reporter and 400 ng of cGAS-GFP overexpression vector, using 1.8 ul lipofectamine 2000 and ˜600,000 cells, per well of a 96 well plate (as previously reported (8)). After 3 h, the cells were collected and aliquoted in 12 wells of a 96 well plate (for each well of a 6 well plate), and treated with indicated doses of IDX overnight, prior lysis in 40 ul of Glo lysis buffer the next day (Promega). Luciferase assays were carried out using the Promega Luciferase Assay System on a on a Fluostar OPTIMA (BMG LABTECH) plate-reader.

human hTERT fibroblasts = experiment: Cell proliferation of hTERT fibroblasts; type: cell-based; conditions: 10 μM IDX, 72 hours
[5] = Fresh versus frozen DMSO stock comparison; type: physicochemical; conditions: 40 mM stock in DMSO kept frozen at −20C

Question: Which “IL-6 production, PolyI:C stimulation” value (TLR3 (PolyI:C)) does the source give for `CCc1ccc(NC(=O)Nc2c[nH]c3ccccc23)cc1` [H151, reference compound] here?
Answer: Its value is “only modestly reduced”.

Question: And the “CPT-induced IL-6 production” value (TC-1 cells (cGAS-STING))?
Answer: The value was “strongly reduced”.

Question: And the “IL-6 production, LPS stimulation” value (TLR4 (LPS))?
Answer: Its value is “only modestly reduced”.

Question: With `Oc1ccc(C2=Cc3ccc(O)cc3OC2)cc1` [IDX, 2H-1-Benzopyran-7-0,1,3-(4-hydroxyphenyl)] as the molecule, how does the IL-6 production (human STING (PBMCs)) read?
Answer: The IL-6 production was “reduced”.

Question: What about the TNFα production (human STING (PBMCs)) of the same molecule?
Answer: Its TNFα production is “reduced”.

Question: What about the “IP-10 production driven by ADU-S100” value (human STING; ADU-S100 30 uM 6 hours) of the same molecule?
Answer: The value was “strongly inhibited”.

Question: What about the “IP-10 production driven by synthetic STING agonist (GSK)” value (human STING; GSK agonist 100 nM 6 hours) of the same molecule?
Answer: Its value is “strongly inhibited”.

Question: What about the “reduction of IFNβ production” value (human STING; synthetic STING agonist (GSK) 100 nM 6 hours, IFNβ ELISA) of the same molecule?
Answer: The value was roughly 50%.

Question: And the “IL-6 in bronchial alveolar lavages” value [1]?
Answer: The value was “significantly reduce”.

Question: What about the Ifih1 expression (basal Sting signalling) of the same molecule?
Answer: Its Ifih1 expression is “dose-dependent inhibition”.

Question: And the Ifit1 expression (basal Sting signalling)?
Answer: Its Ifit1 expression is “dose-dependent inhibition”.

Question: What about the Rsad2 expression (basal Sting signalling) of the same molecule?
Answer: Its Rsad2 expression is “dose-dependent inhibition”.

Question: And the p-65 phosphorylation ([2]; DMXAA 50 ug/mL 1, 2 or 3 hours)?
Answer: The p-65 phosphorylation was “decreased”.

Question: And the “phosphorylation of IRF3” value ([2]; DMXAA 50 ug/mL 1, 2 or 3 hours)?
Answer: The value was “decreased”.

Question: What about the “phosphorylation of STING” value ([2]; DMXAA 50 ug/mL 1, 2 or 3 hours) of the same molecule?
Answer: Its value is “decreased”.

Question: And the “phosphorylation of TBK1” value ([2]; DMXAA 50 ug/mL 1, 2 or 3 hours)?
Answer: The value was “decreased”.

Question: What about the “shift in size of total STING (STING activation)” value ([2]; DMXAA 50 ug/mL, 3-hour period) of the same molecule?
Answer: Its value is “attenuated”.

Question: What about the “effect of increasing DMXAA on inhibition of ISRE-Luc” value (mouse STING) of the same molecule?
Answer: Its value is “did not reverse the inhibition”.

Question: And the “Ifi44 expression in the spleen” value [3]?
Answer: Its value is “decreased”.

Question: What about the “Ifih1 expression in the spleen” value [3] of the same molecule?
Answer: Its value is “decreased”.

Question: What about the “Isg15 expression in the spleen” value [3] of the same molecule?
Answer: The value was “significant decreased”.

Question: And the “Rsad2 expression in the spleen” value [3]?
Answer: Its value is “decreased”.

Question: And the “serum TNFα levels” value ([3]; compared to PBS controls)?
Answer: Its value is “decrease”.

Question: And the “IL-6 production, PolyI:C stimulation” value (TLR3 (PolyI:C))?
Answer: The value was “only modestly reduced”.

Question: And the “CPT-induced IL-6 production” value (TC-1 cells (cGAS-STING))?
Answer: Its value is “significantly reduced”.

Question: And the “IL-6 production, LPS stimulation” value (TLR4 (LPS))?
Answer: Its value is “only modestly reduced”.

Question: And the “inhibition of IFN-β-luciferase” value [4]?
Answer: The value was “potent inhibitor”.

Question: And the “impact on cell proliferation” value (human hTERT fibroblasts)?
Answer: The value was “little impact”.

Question: What about the “activity of fresh versus frozen IDX stock” value [5] of the same molecule?
Answer: Its value is “did not show any difference of activity”.

Question: Which “CPT-induced IL-6 production” value (TC-1 cells (cGAS-STING)) does the source give for `CC(=O)Oc1ccccc1C(=O)O` [aspirin] here?
Answer: The value was “strongly reduced”.

From patent US11541030B2, “Methods for the treatment of inflammation associated with infection” (NOXOPHARM LIMITED, priority 2020, dated 2023)
